One test deals with T1, purified ovine COX-1 (Ovis aries, UniProt P05979).
T1 construct: purchased Cayman Chemical (Biomol, Hamburg, Germany)
T1 sequence (P05979 25-600): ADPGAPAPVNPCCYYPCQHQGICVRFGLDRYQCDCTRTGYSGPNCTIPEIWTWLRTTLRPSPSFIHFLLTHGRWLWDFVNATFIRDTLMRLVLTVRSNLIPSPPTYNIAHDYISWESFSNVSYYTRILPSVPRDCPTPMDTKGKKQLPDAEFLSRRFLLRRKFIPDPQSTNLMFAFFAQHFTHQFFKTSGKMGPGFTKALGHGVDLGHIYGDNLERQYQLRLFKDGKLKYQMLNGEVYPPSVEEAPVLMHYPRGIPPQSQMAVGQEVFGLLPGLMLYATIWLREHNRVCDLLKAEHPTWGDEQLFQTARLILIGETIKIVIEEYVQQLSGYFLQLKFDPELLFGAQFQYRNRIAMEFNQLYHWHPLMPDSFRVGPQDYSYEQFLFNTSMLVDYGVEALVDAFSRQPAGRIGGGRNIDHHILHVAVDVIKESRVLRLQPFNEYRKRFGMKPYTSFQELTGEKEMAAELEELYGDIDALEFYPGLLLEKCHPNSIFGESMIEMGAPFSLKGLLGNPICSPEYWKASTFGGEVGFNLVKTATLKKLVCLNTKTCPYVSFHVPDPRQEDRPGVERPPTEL
Description: COX-1 activity, cell-free (12-HHT formation). The class given is biochemical. As to conditions: 10 µM. The procedure:
COX activity was assayed by using purified ovine COX-1 and recombinant human COX-2, respectively. Enzymes were diluted in Tris buffer (100 mM, pH 8) supplemented with glutathione (5 mM), EDTA (100 µM) and hemoglobin (5 µM) to a final concentration of 50 U/mL (COX-1) or 20 U/mL (COX-2) and pre-incubated with test compounds or vehicle (0.1% DMSO) for 5 min at RT. After 30 sec at 37 °C, reactions were started with 5 µM AA (COX-1) or 2 µM AA (COX-2) and stopped after 5 min at 37 °C by addition of one volume of ice-cold methanol. Solid phase extraction was performed as described above after addition of 200 ng of internal PGB1 standard and COX product formation was determined by analysis of 12-HHT formation as reported before.

Another test deals with T2, sEH in HepG2 cells (Homo sapiens, UniProt P34913).
T2 construct: sEH is constitutively expressed in the human liver cancer cell line HepG2; endogenous in cells; host or cells: HepG2
T2 sequence (P34913 1-555): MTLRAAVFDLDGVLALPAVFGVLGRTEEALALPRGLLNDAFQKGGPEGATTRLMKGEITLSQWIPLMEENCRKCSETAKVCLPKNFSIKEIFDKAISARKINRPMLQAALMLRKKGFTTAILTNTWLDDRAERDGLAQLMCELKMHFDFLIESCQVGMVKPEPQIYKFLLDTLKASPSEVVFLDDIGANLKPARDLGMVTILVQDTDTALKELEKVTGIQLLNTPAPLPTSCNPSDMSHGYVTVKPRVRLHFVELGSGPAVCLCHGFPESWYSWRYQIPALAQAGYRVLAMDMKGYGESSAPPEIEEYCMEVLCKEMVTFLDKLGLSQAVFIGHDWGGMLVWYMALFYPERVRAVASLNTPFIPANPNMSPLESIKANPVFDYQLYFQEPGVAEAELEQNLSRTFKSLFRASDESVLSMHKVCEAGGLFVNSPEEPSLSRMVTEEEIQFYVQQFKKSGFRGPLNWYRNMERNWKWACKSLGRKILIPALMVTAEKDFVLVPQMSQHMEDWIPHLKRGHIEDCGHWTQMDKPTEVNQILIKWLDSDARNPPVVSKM
Description: 14,15-DiHETrE formation in HepG2 cells (cell-based sEH assay). As to conditions: HepG2 cells; AUDA 5 µM, MK886 0.3 µM, SC57461A 0.3 µM. The procedure:
To assay the activity of sEH in a cell-based model, HepG2 cells were harvested by trypsinization, pelleted (1,200 rpm, 5 min, 4 °C) and resuspended in PGC buffer to a final concentration of 1.5 × 10^6 cells/mL. […] Briefly, samples were acidified with four volumes of MilliQ water pH 3.5 containing PBS-HCl and subjected to Waters Sep-Pak® Vac 6cc columns (Waters, Milford, MA, USA), washed once with MilliQ and hexane, and eluted with methylformiate. The nitrogen-dried samples were dissolved in 50% methanol, and 14,15-DiHETrE formation was measured by UPLC-MS/MS using an Acquity™ UPLC system (Waters, Milford, MA, USA) and a QTRAP 5500 Mass Spectrometer (ABSciex, Darmstadt, Germany) equipped with a Turbo V™ Source and electrospray ionization (ESI). […] Ion spray voltage was set to 4000 V, the heater temperature to 500 °C, the declustering potential to 50–80 eV, the entrance potential to 10 eV, the collision cell exit potential to 10–13 eV, collision energies of 10 eV, the spray gas pressure to 40 psi, medium collision gas and the curtain gas pressure to 35 psi.

In test [1] the target is T3, co-localization of 5-LOX with FLAP (Homo sapiens, UniProt P20292).
T3 construct: endogenous in cells; host or cells: freshly isolated human monocytes (immunofluorescence also in neutrophils)
T3 sequence (P20292 1-161): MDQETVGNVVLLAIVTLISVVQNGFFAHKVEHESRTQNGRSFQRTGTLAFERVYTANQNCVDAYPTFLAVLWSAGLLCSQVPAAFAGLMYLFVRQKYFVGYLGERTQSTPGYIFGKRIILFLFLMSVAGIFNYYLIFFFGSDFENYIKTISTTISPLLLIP
Description: Immunofluorescence microscopy of 5-LOX subcellular redistribution / co-localization with FLAP. Type of test: cell-based. The note with it: human neutrophils or monocytes; diflapolin 1 µM, MK886 0.3 µM, zileuton 3 µM. The procedure:
The incubations were stopped by paraformaldehyde fixation (4%, 20 min, RT) and cells were permeabilized using 100% ice-cold acetone (5 min, 4 °C). Blocking with non-immune goat serum (30 min, RT) was performed prior to overnight incubation (4 °C) with primary monoclonal-mouse-anti-5-LOX antibody (1:100 dilution, a generous gift from Dr. D. Steinhilber, Goethe University Frankfurt, Germany) and polyclonal-rabbit-anti-FLAP antibody (5 µg/mL, Abcam, Cambridge, UK). […] Cells were visualized by a Zeiss Axiovert 200 M microscope, and a Plan Neofluar × 100/1.30 Oil (DIC III) objective (Carl Zeiss, Jena, Germany) and image acquisition was performed using an AxioCam MR camera (Carl Zeiss).

The target of another test is T4, LTC4S (Homo sapiens, UniProt Q16873).
T4 construct: expressed in transfected cells; host or cells: HEK293 stably expressing LTC4S (geneticin selection), microsomal fraction
T4 sequence (Q16873 1-150): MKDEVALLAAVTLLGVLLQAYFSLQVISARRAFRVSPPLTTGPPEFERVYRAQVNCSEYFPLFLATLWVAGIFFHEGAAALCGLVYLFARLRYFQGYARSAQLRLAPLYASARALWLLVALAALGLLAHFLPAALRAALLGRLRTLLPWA
The note with it: cited from earlier work.

Take `Cc1cc(OCc2nc3ccccc3s2)ccc1NC(=O)Nc1ccc(Cl)c(Cl)c1` [diflapolin, N-[4-(benzothiazol-2-ylmethoxy)-2-methylphenyl]-N′-(3,4-dichlorophenyl)urea]: the “inhibition of COX-1 activity” value on purified ovine COX-1 is recorded as “did not significantly inhibit”.

Regarding `CC(C)c1ccc2c(c1)c(SC(C)(C)C)c(CC(C)(C)C(=O)O)n2Cc1ccc(Cl)cc1` [MK886, 3-[1-(4-chlorobenzyl)-3-t-butyl-thio-5-isopropylindol-2-yl]-2,2 - dimethylpropanoic acid], on sEH in HepG2 cells, the “effect on sEH in the cell-based sEH assay” value is listed as “no impact”. Besides, the “co-localization of 5-LOX with FLAP” value in test [1] was “neither diflapolin nor the FLAP inhibitor MK886 or the 5-LOX inhibitor zileuton prevented co-localization”. Also, the “inhibition of MAPEG family member LTC4S” value on LTC4S is recorded as “inhibit”.

Values taken from paper PMC5571211 (Scientific Reports, 2017).
